# Tested on: HSV-1 (strain SC16)
# Test: Virus yield reduction assay (plaque assay, Vero cell monolayers)
# Assay type: cell-based
# Method: African green monkey kidney cells (Vero) (ATCC CCL-81) were grown in Dulbecco's modified Eagle's medium (DMEM) supplemented with 10% fetal calf serum. HSV-1 (strain SC16), carrying a lacZ gene driven by the CMV IE-1 promoter to express β-galactosidase, was propagated on Vero cells monolayers.
# For all experiments, peptides, dendrimers, and peptidodendrimers were dissolved in DMEM without serum and used at concentrations of 0, 5.5, 55, 280, and 550 nM. All experiments were conducted in triplicate. The percentage of infectivity inhibition was calculated by setting the number of plaques obtained in positive controls where no antiviral compounds were added to the cell monolayers to 0% inhibition.
# Confluent Vero cell monolayers (12-well plates) were washed with phosphate-buffered saline (PBS) and infected with HSV-1 at multiplicity of infection (MOI) of 1 plaque-forming unit (pfu)/cell for 1 hour at 37° C. The virus inocula were mixed with the peptide/dendrimer/conjugate(s) to be tested, as described in Example 3 above. […] Plaques were stained with X-gal (5-bromo-4-chloro-3-indolyl-([…]-galactopyranoside) and microscopically counted. The mean plaque counts for each drug concentration were expressed as a percentage of the mean plaque count for the control virus. The number of plaques was plotted as a function of drug concentration. See FIG. 6. […]
sequence,measurement,setting,value
"AAHLIDALYAEFLGGRVLTT (SEQ ID NO: 53) (HSV-1 envelope glycoprotein-derived peptide) [PgH, Residues 493-512 of envelope glycoprotein H]",antiviral activity relative to comparators (in words),"HSV-1 on Vero cells, FIGS. 6 and 18",less active than gB8
"FARLQFTYNHIQRHVRDMEGR (SEQ ID NO: 23) (HSV-1 envelope glycoprotein-derived peptide) [gB8, Residues 503-523 of envelope glycoprotein B]",inhibitory concentration (range in words),peptide alone vs peptide conjugated to dendrimer,micromolar

# From patent publication US20160228565A1, “POLYAMIDE BASED PEPTID[…]” (New York University, priority 2014, published 2016)
